Data as given in the kinase profiling compilation of Christmann-Franck et al. (2016).

Legend:
Assay in all cases: radiometric filter-binding kinase assay, Kinase HotSpot
Details in all cases: compound 0.5 µM; ATP 10 µM
[1] = biological target: AURKA (human) (UniProt O14965)
[2] = biological target: PLK2 (human) (UniProt Q9NYY3)
[3] = biological target: FGFR3 (human) (UniProt P22607)
[4] = biological target: SRC (human) (UniProt P12931)
[5] = biological target: GSK3A (human) (UniProt P49840)
[6] = biological target: MARK3 (human) (UniProt P27448)
[7] = biological target: SYK (human) (UniProt P43405)
[8] = biological target: STK24 (human) (UniProt Q9Y6E0)
[9] = biological target: TGFBR1 (human) (UniProt P36897)
[10] = biological target: CSNK1G3 (human) (UniProt Q9Y6M4)
[11] = biological target: MAP4K2 (human) (UniProt Q12851)
[12] = biological target: MARK4 (human) (UniProt Q96L34)
[13] = biological target: MAPK12 (human) (UniProt P53778)
[14] = biological target: ZAP70 (human) (UniProt P43403)
[15] = biological target: PTK2B (human) (UniProt Q14289)
[16] = biological target: RIPK2 (human) (UniProt O43353)
[17] = biological target: CSNK2A1 (human) (UniProt P68400)
[18] = biological target: ACVR1B (human) (UniProt P36896)
[19] = biological target: RAF1 (human) (UniProt P04049)
[20] = biological target: AKT1 (human) (UniProt P31749)
[21] = biological target: CDC42BPA (human) (UniProt Q5VT25)
[22] = biological target: TEC (human) (UniProt P42680)
[23] = biological target: MYLK (human) (UniProt Q15746)
[24] = biological target: PRKACA (human) (UniProt P17612)
[25] = biological target: NEK4 (human) (UniProt P51957)
[26] = biological target: ROCK2 (human) (UniProt O75116)
[27] = biological target: SLK (human) (UniProt Q9H2G2)
[28] = biological target: JAK1 JH1 catalytic (human) (UniProt P23458)
[29] = biological target: MAP3K3 (human) (UniProt Q99759)
[30] = biological target: EPHA5 (human) (UniProt P54756)
[31] = biological target: STK17A (human) (UniProt Q9UEE5)
[32] = biological target: BTK (human) (UniProt Q06187)
[33] = biological target: MAPK14 (human) (UniProt Q16539)
[34] = biological target: CSNK1A1 (human) (UniProt P48729)
[35] = biological target: CAMKK2 (human) (UniProt Q96RR4)
[36] = biological target: PRKD2 (human) (UniProt Q9BZL6)
[37] = biological target: EPHB2 (human) (UniProt P29323)
[38] = biological target: CDK9 CCNT1 (human) (UniProt P50750+O60563)
[39] = biological target: AXL (human) (UniProt P30530)
[40] = biological target: PAK6 (human) (UniProt Q9NQU5)
[41] = biological target: TYK2 JH1 catalytic (human) (UniProt P29597)
[42] = biological target: TSSK2 (human) (UniProt Q96PF2)

Chain of ACVR1B (human) (P36896 whole entry, looked up): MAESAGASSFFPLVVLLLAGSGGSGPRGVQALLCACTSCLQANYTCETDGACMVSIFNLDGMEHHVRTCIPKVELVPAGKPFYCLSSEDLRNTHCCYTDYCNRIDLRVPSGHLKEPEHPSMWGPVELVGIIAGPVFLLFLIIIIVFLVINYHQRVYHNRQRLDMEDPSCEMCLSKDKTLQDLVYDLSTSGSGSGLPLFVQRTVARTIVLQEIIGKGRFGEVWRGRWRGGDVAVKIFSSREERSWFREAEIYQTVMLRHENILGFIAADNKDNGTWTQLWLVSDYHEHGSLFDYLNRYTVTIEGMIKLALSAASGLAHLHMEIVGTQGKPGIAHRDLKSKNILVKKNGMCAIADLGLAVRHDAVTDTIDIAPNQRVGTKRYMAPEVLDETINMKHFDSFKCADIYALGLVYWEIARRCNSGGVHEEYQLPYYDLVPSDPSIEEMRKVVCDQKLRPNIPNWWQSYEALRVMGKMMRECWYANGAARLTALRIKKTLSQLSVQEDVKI
Chain of CSNK1A1 (human) (P48729 whole entry, looked up): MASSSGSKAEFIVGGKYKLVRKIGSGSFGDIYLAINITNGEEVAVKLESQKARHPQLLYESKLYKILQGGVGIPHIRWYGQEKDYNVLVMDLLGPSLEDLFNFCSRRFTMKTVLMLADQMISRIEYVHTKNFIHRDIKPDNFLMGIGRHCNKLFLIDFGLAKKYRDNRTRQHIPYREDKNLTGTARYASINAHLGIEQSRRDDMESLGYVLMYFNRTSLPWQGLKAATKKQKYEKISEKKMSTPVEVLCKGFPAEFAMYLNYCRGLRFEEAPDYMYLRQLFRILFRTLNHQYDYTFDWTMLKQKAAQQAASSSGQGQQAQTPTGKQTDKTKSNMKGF
Chain of NEK4 (human) (P51957 whole entry, looked up): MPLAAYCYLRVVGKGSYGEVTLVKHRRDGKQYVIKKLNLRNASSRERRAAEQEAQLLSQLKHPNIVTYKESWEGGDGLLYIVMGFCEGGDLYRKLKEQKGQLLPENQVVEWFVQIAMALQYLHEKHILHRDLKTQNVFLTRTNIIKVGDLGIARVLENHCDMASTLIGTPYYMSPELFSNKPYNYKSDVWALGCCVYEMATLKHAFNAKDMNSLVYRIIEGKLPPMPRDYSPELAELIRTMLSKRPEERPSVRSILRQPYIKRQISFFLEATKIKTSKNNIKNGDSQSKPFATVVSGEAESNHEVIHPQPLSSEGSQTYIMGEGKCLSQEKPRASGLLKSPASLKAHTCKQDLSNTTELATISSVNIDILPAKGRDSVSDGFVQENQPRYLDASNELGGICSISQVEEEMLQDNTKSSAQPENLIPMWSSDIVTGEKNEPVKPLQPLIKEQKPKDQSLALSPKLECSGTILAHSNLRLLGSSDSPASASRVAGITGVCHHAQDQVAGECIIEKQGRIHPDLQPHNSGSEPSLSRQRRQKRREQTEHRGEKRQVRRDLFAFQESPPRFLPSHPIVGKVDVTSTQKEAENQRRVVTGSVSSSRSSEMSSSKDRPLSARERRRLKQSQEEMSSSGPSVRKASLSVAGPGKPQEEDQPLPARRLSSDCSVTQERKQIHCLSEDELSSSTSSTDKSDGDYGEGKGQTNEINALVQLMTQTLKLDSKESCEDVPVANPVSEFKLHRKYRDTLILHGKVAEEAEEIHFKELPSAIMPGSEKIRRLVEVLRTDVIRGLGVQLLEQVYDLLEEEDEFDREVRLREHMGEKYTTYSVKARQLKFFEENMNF
Chain of RIPK2 (human) (O43353 whole entry, looked up): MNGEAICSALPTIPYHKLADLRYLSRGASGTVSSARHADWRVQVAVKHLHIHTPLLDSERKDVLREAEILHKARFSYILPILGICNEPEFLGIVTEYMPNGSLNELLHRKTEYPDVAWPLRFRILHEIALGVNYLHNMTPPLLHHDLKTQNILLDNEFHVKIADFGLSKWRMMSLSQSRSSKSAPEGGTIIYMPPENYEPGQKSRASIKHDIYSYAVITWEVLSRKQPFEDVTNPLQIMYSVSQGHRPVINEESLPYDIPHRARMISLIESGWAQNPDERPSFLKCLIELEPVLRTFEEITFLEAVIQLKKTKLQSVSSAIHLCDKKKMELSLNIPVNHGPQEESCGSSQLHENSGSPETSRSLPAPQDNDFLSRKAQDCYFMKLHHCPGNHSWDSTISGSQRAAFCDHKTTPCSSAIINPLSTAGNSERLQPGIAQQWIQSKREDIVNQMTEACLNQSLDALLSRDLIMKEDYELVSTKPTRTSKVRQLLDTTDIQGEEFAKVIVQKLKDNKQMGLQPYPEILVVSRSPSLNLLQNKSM
Chain of AKT1 (human) (P31749 whole entry, looked up): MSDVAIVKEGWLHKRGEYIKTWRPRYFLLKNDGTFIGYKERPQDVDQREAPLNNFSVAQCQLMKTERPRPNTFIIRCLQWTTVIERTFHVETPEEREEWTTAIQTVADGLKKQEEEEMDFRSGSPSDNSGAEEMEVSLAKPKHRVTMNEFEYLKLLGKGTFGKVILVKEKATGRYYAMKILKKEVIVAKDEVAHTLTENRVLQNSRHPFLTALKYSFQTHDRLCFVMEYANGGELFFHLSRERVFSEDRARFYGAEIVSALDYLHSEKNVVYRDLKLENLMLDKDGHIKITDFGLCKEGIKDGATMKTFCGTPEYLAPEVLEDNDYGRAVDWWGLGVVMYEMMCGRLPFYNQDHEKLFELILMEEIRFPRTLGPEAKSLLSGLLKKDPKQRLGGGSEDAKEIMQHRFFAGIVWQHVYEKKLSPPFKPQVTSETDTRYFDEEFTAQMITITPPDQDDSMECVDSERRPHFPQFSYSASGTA
Chain of GSK3A (human) (P49840 whole entry, looked up): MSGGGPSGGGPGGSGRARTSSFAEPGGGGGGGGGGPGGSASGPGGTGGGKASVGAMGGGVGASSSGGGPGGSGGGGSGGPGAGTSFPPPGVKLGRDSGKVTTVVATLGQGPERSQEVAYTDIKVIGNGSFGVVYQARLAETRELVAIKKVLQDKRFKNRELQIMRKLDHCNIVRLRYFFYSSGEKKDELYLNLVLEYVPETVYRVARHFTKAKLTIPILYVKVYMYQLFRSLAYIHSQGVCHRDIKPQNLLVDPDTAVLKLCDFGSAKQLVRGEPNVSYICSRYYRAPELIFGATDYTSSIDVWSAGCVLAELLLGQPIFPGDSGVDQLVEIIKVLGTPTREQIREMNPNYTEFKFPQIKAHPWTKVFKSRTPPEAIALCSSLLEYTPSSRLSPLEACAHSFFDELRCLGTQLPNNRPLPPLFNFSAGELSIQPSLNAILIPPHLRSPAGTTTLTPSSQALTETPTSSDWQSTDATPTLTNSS
Chain of EPHA5 (human) (P54756 whole entry, looked up): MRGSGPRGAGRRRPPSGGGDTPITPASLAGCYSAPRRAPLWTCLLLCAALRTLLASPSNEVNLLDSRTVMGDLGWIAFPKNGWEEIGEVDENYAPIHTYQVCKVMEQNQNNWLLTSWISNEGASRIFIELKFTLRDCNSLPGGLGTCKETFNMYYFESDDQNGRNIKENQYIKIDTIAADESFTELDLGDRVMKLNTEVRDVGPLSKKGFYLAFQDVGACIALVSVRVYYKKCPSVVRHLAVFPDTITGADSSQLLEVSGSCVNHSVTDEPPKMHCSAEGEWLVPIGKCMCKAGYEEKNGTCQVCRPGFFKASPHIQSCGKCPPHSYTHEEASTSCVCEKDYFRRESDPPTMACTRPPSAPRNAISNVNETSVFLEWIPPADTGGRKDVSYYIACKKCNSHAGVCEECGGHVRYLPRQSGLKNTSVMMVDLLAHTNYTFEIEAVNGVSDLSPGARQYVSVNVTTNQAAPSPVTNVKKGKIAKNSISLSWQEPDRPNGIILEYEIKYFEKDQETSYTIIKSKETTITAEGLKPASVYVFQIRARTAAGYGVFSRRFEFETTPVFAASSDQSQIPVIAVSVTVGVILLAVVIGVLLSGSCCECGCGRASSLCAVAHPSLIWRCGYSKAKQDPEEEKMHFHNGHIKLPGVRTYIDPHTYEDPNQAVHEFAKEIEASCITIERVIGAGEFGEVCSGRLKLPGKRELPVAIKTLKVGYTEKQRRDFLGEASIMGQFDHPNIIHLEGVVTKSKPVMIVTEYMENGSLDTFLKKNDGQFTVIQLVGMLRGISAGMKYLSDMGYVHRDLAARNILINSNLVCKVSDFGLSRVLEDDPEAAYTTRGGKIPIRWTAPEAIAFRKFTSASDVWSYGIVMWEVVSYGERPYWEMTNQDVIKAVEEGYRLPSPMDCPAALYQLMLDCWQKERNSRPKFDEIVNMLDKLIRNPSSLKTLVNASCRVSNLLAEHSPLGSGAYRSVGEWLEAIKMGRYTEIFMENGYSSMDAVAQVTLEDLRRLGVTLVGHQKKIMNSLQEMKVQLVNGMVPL
Chain of MAPK12 (human) (P53778 whole entry, looked up): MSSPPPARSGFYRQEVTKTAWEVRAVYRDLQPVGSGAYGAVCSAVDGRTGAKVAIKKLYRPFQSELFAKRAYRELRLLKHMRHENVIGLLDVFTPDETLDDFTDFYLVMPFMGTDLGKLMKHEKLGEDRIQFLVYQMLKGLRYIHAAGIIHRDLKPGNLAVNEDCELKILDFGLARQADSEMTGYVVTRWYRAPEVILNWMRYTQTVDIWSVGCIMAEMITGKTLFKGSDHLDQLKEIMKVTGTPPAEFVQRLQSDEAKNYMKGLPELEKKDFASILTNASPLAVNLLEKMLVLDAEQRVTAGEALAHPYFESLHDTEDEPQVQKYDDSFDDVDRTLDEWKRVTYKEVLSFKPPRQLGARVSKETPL
Chain of MAPK14 (human) (Q16539 whole entry, looked up): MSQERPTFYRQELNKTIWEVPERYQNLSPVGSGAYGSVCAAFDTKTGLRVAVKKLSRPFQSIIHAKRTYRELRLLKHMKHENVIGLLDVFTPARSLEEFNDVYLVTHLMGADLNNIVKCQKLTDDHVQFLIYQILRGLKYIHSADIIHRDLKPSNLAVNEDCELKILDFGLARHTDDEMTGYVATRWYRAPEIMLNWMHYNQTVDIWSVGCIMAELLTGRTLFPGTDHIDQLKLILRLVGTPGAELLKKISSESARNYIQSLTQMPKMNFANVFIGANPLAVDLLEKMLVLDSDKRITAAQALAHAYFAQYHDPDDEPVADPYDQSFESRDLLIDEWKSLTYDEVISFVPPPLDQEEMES

CS(=O)(=O)CCNCc1ccc(-c2ccc3ncnc(Nc4ccc(OCc5cccc(F)c5)c(Cl)c4)c3c2)o1
residual activity [1]: 81.5%
residual activity [2]: 103%
residual activity [3]: 96.7%
residual activity [4]: 102%
residual activity [5]: 105%
residual activity [6]: 95.9%
residual activity [7]: 113%
residual activity [8]: 106%
residual activity [9]: 101%
residual activity [10]: 104%
residual activity [11]: 104%
residual activity [12]: 104%
residual activity [13]: 95%
residual activity [14]: 92.5%
residual activity [15]: 101%
residual activity [16]: 110%
residual activity [17]: 121%
residual activity [18]: 98.7%
residual activity [19]: 85.9%
residual activity [20]: 95.6%
residual activity [21]: 88.2%
residual activity [22]: 101%
residual activity [23]: 90.7%
residual activity [24]: 96%
residual activity [25]: 98.1%
residual activity [26]: 92.7%
residual activity [27]: 85.1%
residual activity [28]: 98%
residual activity [29]: 110%
residual activity [30]: 103%
residual activity [31]: 89.7%
residual activity [32]: 103%
residual activity [33]: 101%
residual activity [34]: 104%
residual activity [35]: 101%
residual activity [36]: 86.4%
residual activity [37]: 101%
residual activity [38]: 85.2%
residual activity [39]: 96.2%
residual activity [40]: 106%
residual activity [41]: 95.5%
residual activity [42]: 89.9%

Cc1cccc(-c2nc(C(C)(C)C)[nH]c2-c2ccc3c(c2)OCO3)n1
residual activity [1]: 93.4%
residual activity [2]: 92.1%
residual activity [3]: 96.6%
residual activity [4]: 96%
residual activity [5]: 93%
residual activity [6]: 73.9%
residual activity [7]: 87%
residual activity [8]: 100%
residual activity [9]: 35.8%
residual activity [10]: 102%
residual activity [11]: 102%
residual activity [12]: 99.7%
residual activity [13]: 95.7%
residual activity [14]: 106%
residual activity [15]: 91.3%
residual activity [16]: 79%
residual activity [17]: 98%
residual activity [18]: 31%
residual activity [19]: 86.2%
residual activity [20]: 94.6%
residual activity [21]: 89.6%
residual activity [22]: 123%
residual activity [23]: 105%
residual activity [24]: 102%
residual activity [25]: 94.9%
residual activity [26]: 104%
residual activity [27]: 108%
residual activity [28]: 96.1%
residual activity [29]: 120%
residual activity [30]: 95.6%
residual activity [31]: 84.1%
residual activity [32]: 118%
residual activity [33]: 89.7%
residual activity [34]: 96.5%
residual activity [35]: 96%
residual activity [36]: 93.6%
residual activity [37]: 93%
residual activity [38]: 88.5%
residual activity [39]: 101%
residual activity [40]: 103%
residual activity [41]: 102%
residual activity [42]: 92.7%
